Measured values: patent US7087648B1, “Methods for modulating macrophage proliferation using polyamine analogs” (The Regents of the University of California, priority 1997, dated 2006)

Tested on: CD14^+/PCNA^+ peripheral blood macrophage
Assay: In vitro CD14/PCNA staining (FACSCAN) of PBMC from AIDS dementia patients cultured five days with agent
Format: cell-based, human
Conditions: for CD14^+/PCNA^+ / CD14^+/PCNA^− / total CD14: HIV dementia patient five; for CD14^+/PCNA^+: 0 drug: 74; for CD14^+/PCNA^−: 0 drug: 472; for total CD14: 0 drug: 546; for % Inhibition of CD14^+/PCNA antigen expression, mean: mean of HIV dementia patients
Description: We had previously separated peripheral blood monocytes on Ficoll. […] We then used Percoll gradient separation, which allows for denser cells to be captured. A two-step gradient was prepared in 15 mL conical tubes: bottom layer of 1.087 density Percoll, overlaid with 1.077 density. 1.5 mL whole heparinised blood was mixed with an equal volume of isotonic saline. This blood/saline was layered over the gradient and centrifuged. Cells from the 1.077 and 1.087 interfaces were collected, combined, and washed in 5 volumes of RPMI 1640. […] All further experiments were performed using 1.087 gradient.
Five×10^5 PBMC's isolated through a 1.087 g/cc Percoll/saline gradient were exposed to varied concentrations of agent after baseline CD14/PCNA staining was performed. The cells were cultured at 5×10^5 cells in RPM1-1640/10% fetal calf serum in a polypropylene tube (Falcon) at 37° C. for five days. After five days CD14/PCNA staining was performed on control and agent-treated cultures. FACSCAN analysis of PCNA-positive cells in control cultures was compared with agent-treated cultures and the percentage of control PCNA/CD14 cells was calculated. The results of such an experiment in which the effect of polyamine analog DEHOP (SunPharm; Florida) on proliferating macrophages (as detected by PCNA) from the blood of four patients with AIDS dementia are shown in FIG. 1A (with underlying data provided in Table 3). […] A comparison of the inhibitory effect of DEHOP and cyclosphosphamide, another anti-proliferative agent, was performed in vitro using the blood of one of these patients (“CB”).

CCNCCCCNCCCCNCCCCNCC [DEHOP, 1,14-bis(ethylamino)-5,10-diazatetradecane]
PCNA^+/CD14 cell survival (FIG. 6, averages of several (N) experiments): decrease
% Inhibition of CD14^+/PCNA antigen expression (HIV dementia patient 1, DEHOP 2 um): 79%
% Inhibition of CD14^+/PCNA antigen expression (HIV dementia patient 1, DEHOP 10 um): 95%
% Inhibition of CD14^+/PCNA antigen expression (HIV dementia patient 1, DEHOP 50 um): 84%
% Inhibition of CD14^+/PCNA antigen expression (HIV dementia patient 2, DEHOP 0.4 um): 94%
% Inhibition of CD14^+/PCNA antigen expression (HIV dementia patient 2, DEHOP 2 um): 94%
% Inhibition of CD14^+/PCNA antigen expression (HIV dementia patient 2, DEHOP 10 um): 97%
% Inhibition of CD14^+/PCNA antigen expression (HIV dementia patient 3, DEHOP 0.4 um): 66%
% Inhibition of CD14^+/PCNA antigen expression (HIV dementia patient 3, DEHOP 2 um): 62%
% Inhibition of CD14^+/PCNA antigen expression (HIV dementia patient 3, DEHOP 10 um): 58%
% Inhibition of CD14^+/PCNA antigen expression (HIV dementia patient 4, DEHOP 0.08 um): 19%
% Inhibition of CD14^+/PCNA antigen expression (HIV dementia patient 4, DEHOP 0.4 um): 25%
% Inhibition of CD14^+/PCNA antigen expression (HIV dementia patient 4, DEHOP 2 um): 75%
CD14^+/PCNA^+ (0.4 (um)): 25 #cells/10,000 PBMC
CD14^+/PCNA^− (0.4 (um)): 222 #cells/10,000 PBMC
total CD14 (0.4 (um)): 247 #cells/10,000 PBMC
CD14^+/PCNA^+ (2 (um)): 28 #cells/10,000 PBMC
CD14^+/PCNA^− (2 (um)): 182 #cells/10,000 PBMC
total CD14 (2 (um)): 210 #cells/10,000 PBMC
CD14^+/PCNA^+ (10 um): 31 #cells/10,000 PBMC
CD14^+/PCNA^− (10 um): 89 #cells/10,000 PBMC
total CD14 (10 um): 120 #cells/10,000 PBMC
percentage of proliferating macrophages (as detected by PCNA) (blood of four patients with AIDS dementia, FIG. 1A): significantly reduced the percentage of proliferating macrophages
inhibitory effect compared with cyclosphosphamide (blood of patient five, Table 1): superior in inhibition
% Inhibition of CD14^+/PCNA antigen expression, mean (DEHOP 0.08 um): 19%
% Inhibition of CD14^+/PCNA antigen expression, mean (DEHOP 0.4 um): 62%
% Inhibition of CD14^+/PCNA antigen expression, mean (DEHOP 2 um): 78%
% Inhibition of CD14^+/PCNA antigen expression, mean (DEHOP 10 um): 83%
% Inhibition of CD14^+/PCNA antigen expression, mean (DEHOP 50 um): 84%
inhibition and/or killing of blood PCNA^+/CD14^+ cells (summary of the data shown): potent inhibition and/or killing
